The test deals with CEM cells HIV-1 protection, formazan growth assay. The test is described as follows: NCI AIDS Antiviral Assay. To be noted: for IC50: measured here: growth of uninfected CEM cells. A digest of the protocol: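 Human CEM cells, uninfected and HIV-1-infected, exposed to five drug concentrations; growth measured by soluble formazan assay and scored as percent protection from infection, with protecting compounds retested.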

Active and inactive are the calls of the source.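 The calls were made as follows: active = compounds giving half or more protection of infected cells from virus-caused growth loss, again on retest; inactive = the rest.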

For orientation: EC50 means the concentration needed to bring the measured effect to its halfway point. The IC50 is the point on the concentration scale where inhibition reaches its midpoint. Low readings indicate inhibition by little substance, high ones a need for much substance. On to `NC(=O)c1cccc(N=O)c1`, for which the EC50 is > 200 µM and the IC50 worked out at 12.9 µM.
For the molecule `COC(=O)CNC(=O)CSc1nnc(COc2ccc(Cl)cc2)n1-c1ccccc1`, the EC50 is > 200 µM and the IC50 is 60.3 µM.
Consider `CC(=O)OC1C(CN2CCOC2=O)OC(n2ccc(=O)[nH]c2=O)C1OC(C)=O` (configuration not stated), for which the EC50 was > 200 µM and the IC50 is > 200 µM.
As for `Cc1ccc(NC(=S)Nc2ccccc2C)nc1`, the EC50 is > 200 µM and the IC50 worked out at 0.776 µM.
As to `C/C(O)=c1\cc(C#N)c(=C(C#N)C#N)nc1C`, the outcome was inactive.
Regarding `CSc1sc(=S)sc1C(=O)N(C)c1ccccc1`, the EC50 was > 200 µM and the IC50 is > 200 µM.
Regarding `CCN(CC)CCn1c2ccccc2c(=O)c2c(O)ccc(O)c21`, the outcome was inactive.
In the case of `CC(Cn1c(=O)oc2ccccc21)N(C)C` (configuration not stated), the EC50 is > 200 µM and the IC50 was > 200 µM.
Consider `Cn1c(=O)c2[nH]c(N=O)nc2n(C)c1=O`, for which the EC50 was > 200 µM and the IC50 was > 200 µM.
For the molecule `N#C/C(=C\n1c(=S)[nH]c2ccc([N+](=O)[O-])cc21)c1nc2ccccc2s1`, the EC50 was > 200 µM and the IC50 was 102 µM.
Regarding `Cc1cc2c(C(C)C)c(O)c(O)c(C=NCc3ccoc3)c2c(O)c1-c1c(C)cc2c(C(C)C)c(O)c(O)c(C=NCc3ccco3)c2c1O`, the EC50 was > 200 µM and the IC50 was determined as 10 µM.
`Cc1ccc(-n2c3nc(=O)n(C)c(=O)c-3nc3ccccc32)cc1`: the result was inactive.
For the molecule `CC(=O)OCC1OC(n2c(-c3ccc(C)cc3)cc(-c3ccccc3)c(C#N)c2=O)C(OC(C)=O)C(OC(C)=O)C1OC(C)=O` (configuration not stated), the EC50 was > 11.7 µM and the IC50 was > 11.7 µM.
In the case of `C[Si](C)(/C(=C/COCc1ccccc1)CCOC1CCCCO1)c1ccccc1` (configuration not stated), the EC50 is > 9.12 µM and the IC50 was > 9.12 µM.
For the molecule `Cc1ccc(N2CC(=O)N3CCCC(C)N3C(=O)C2)cc1` (configuration not stated), the EC50 was > 200 µM and the IC50 was found to be 174 µM.
For the molecule `O=C1OC(=O)C([Se]c2ccccc2)=C1[Se]c1ccccc1`, the result was inactive.
Consider `COc1ccc(/C=C2\NC(=S)N(/C=C3\C(=O)Oc4ccccc4C3=O)C2=O)cc1OC`, for which the EC50 was > 200 µM and the 50% inhibitory concentration (IC50) was > 200 µM.
`O=C(CC1C(=O)Nc2ccccc2S1(=O)=O)Nc1cccc(Cl)c1` (configuration not stated): the EC50 is > 27.5 µM and the IC50 is > 27.5 µM.
On to `COC(=O)c1ccccc1CC(Cc1ccccc1)C(=O)OC` (configuration not stated), for which the result was inactive.
Consider `O=c1n(-c2ccccc2)c(=O)n(-c2ccccc2)c(=O)n1-c1ccccc1`, for which the EC50 is > 200 µM and the IC50 was > 200 µM.
`CC1(C)CC(=O)c2c([nH]c(=S)c(C#N)c2-c2ccc(Br)cc2)C1`: the EC50 is > 200 µM and the IC50 amounted to 43.7 µM.
Regarding `CCOC(=O)COc1cccc2occc(=O)c12`, the result was inactive.
With `CC(C)(C)[Si](C)(C)OCC1OC(n2ccc(=O)[nH]c2=O)C(O[Si](C)(C)C(C)(C)C)[C@]12O[C@@H]2CO` (some centres not stated), the EC50 is > 200 µM and the IC50 turned out to be 13.2 µM.
As to `CC1OC([C@]2(C)O[C@@H]([C@@]3(C)OC=CC3=O)CC2=O)CC1=O` (some centres not stated), the outcome was inactive.
For `CC(C)=CCOc1cc(O)c2c(c1)C(=O)c1cc(C)cc(O)c1C2=O`, the EC50 is > 50.1 µM and the half-maximal inhibitory concentration (IC50) is > 50.1 µM.
With `C[N+]1(CC(=O)c2ccc(O)c(O)c2)CCOCC1`, the EC50 is > 200 µM and the IC50 was > 200 µM.
On to `CC(NC(=O)CNP(=O)(c1ccccc1)c1ccccc1)C(=O)NC(Cc1ccccc1)C(=O)OCc1ccccc1` (configuration not stated), for which the EC50 was > 200 µM and the IC50 was found to be 20.4 µM.
As to `O=C(O)CSc1n[nH]c(=S)c2nc[nH]c12`, the EC50 is > 537 µM and the IC50 was > 537 µM.
Take `Cc1cc[n+]2c(c1)-c1cc(C)cc[n+]1CC2`: the EC50 is > 200 µM and the IC50 is 162 µM.
For `O=[N+]([O-])c1cccc(/C=N/NC2=CS(=O)(=O)C=C2)c1`, the EC50 is > 67.6 µM and the IC50 is > 67.6 µM.
As for `CC1(Br)C(=O)NC(=O)N(C2CC(N=[N+]=[N-])C(CO)O2)C1N=[N+]=[N-]` (configuration not stated), the result was active and the IC50 was 89.1 µM.
Take `O=c1c2cc(-c3ccccc3)cnc2sn1-c1ccc([N+](=O)[O-])cc1`: the EC50 was > 200 µM and the IC50 came out at 39.8 µM.
On to `CCOC(=O)/C=C(/OCC)[C@@H]1C(C(=O)c2ccc(Cl)cc2)[C@@H]1/C(=C\C(=O)OCC)OCC` (some centres not stated), for which the EC50 was > 200 µM and the IC50 stood at 5.89 µM.
For `CCOC(=O)C1C(=O)CC1(C)C` (configuration not stated), in that order: > 200 µM and > 200 µM.
With `C/C(CC(=O)Nc1ccc([N+](=O)[O-])cc1)=N\Nc1ccc([N+](=O)[O-])cc1[N+](=O)[O-]`, the EC50 is > 24.5 µM and the IC50 is > 24.5 µM.
With `COc1ccc(NCc2cccc3c(=O)c4ccc(Cl)cc4oc23)cc1`, the EC50 was 3.47 µM and the IC50 stood at 25.1 µM.
As to `COc1ccc(/C=C2\Oc3cc(OC(C)=O)ccc3C2=O)cc1`, the EC50 was > 200 µM and the IC50 was determined as 37.2 µM.
Taken in the same sequence, the figures for `CCCCNC(=O)C1C2C=CC(O2)C1C(=O)O` (configuration not stated) were > 200 µM and > 200 µM.
As for `CN1C(=O)/C(=C2\SC(=O)N(CNc3ccc(Br)cc3)C2=O)c2ccccc21`, the EC50 is > 200 µM and the IC50 amounted to 15.5 µM.
With `c1ccc(Nc2cc(Nc3ccccc3)cc(Nc3ccccc3)c2)cc1`, the EC50 is > 200 µM and the IC50 was 26.3 µM.
Consider `O=C(Nc1ccc(F)cc1)C(=O)C(C(=O)c1ccccc1F)C1OC(=O)c2ccccc21` (configuration not stated), for which the EC50 is > 302 µM and the IC50 was 18.2 µM.
Consider `COc1cc(C2(C)SCCCS2)c(I)c(OC)c1OC`, for which the EC50 is > 234 µM and the IC50 amounted to 6.17 µM.
As to `S=C(Nc1ccccc1)N(/N=C/C=C/c1ccccc1)c1nnc(-c2ccccc2)c(-c2ccccc2)n1`, the EC50 was > 70.8 µM and the IC50 was 43.7 µM.
For `CCOC(=O)c1cc2ccccc2cc(C(=O)OCC)c1=O`, the EC50 was > 200 µM and the IC50 turned out to be 34.7 µM.
Taken in the same sequence, the figures for `O=C(CN1CCCCC1)c1ccc2c(c1)Cc1cc(C(=O)CN3CCCCC3)ccc1O2` were > 70.8 µM and 33.1 µM.
Take `CCCCOC(=O)C(=O)/C(=C/N1C(=O)/C(=C/C(C)=C/c2ccccc2)SC1=S)C(=O)C=C(C)C`: the EC50 was > 100 µM and the IC50 was 14.8 µM.
`CC(C)C1=C[C@H](c2ccccc2)c2ccccc2C1C(C#N)(C#N)C(C)C` (some centres not stated): the EC50 was > 1.48 µM and the IC50 was > 1.48 µM.
`N#CC1C(C#N)C2CC1C1N=NN(c3ccccc3)C21` (configuration not stated): the EC50 was > 200 µM and the IC50 is > 200 µM.
For the molecule `Oc1ccc(O)c(CNc2ccc(C(O)C(F)(F)F)cc2)c1` (configuration not stated), the EC50 is > 200 µM and the IC50 stood at 18.6 µM.
In the case of `CCCN(C)C(=O)N(CC)S(=O)(=O)c1ccc(Cl)cc1`, the result was inactive.
Consider `CCOC(=O)C1=C(C)N(NC(=O)OC)C2(N)N(NC(=O)OC)C(C)=C(C(=O)OCC)C12C#N` (configuration not stated), for which the EC50 was > 537 µM and the IC50 is > 537 µM.
In the case of `CC(C)CC(C#CCCOC(=O)c1ccccc1)OC(=O)c1ccccc1` (configuration not stated), the EC50 was > 200 µM and the IC50 amounted to 95.5 µM.
Consider `NC(=O)CNC(=O)c1ccccc1SC(=O)CCC[n+]1ccccc1`, for which the EC50 is 1.17 µM and the IC50 stood at 25.7 µM.
Consider `O=C(Cc1nc2ccc(C(=O)c3ccccc3)cc2[nH]c1=O)C(=O)Nc1ccc(C(F)(F)F)cc1[N+](=O)[O-]`, for which the EC50 is > 69.2 µM and the IC50 is 47.9 µM.
For the molecule `O=S(=O)(O)OC1CCCC1S(=O)(=O)O` (configuration not stated), the EC50 was > 200 µM and the IC50 was > 200 µM.
For the molecule `CC(C)C(=O)OCC1OC(n2c(Br)nc3c(=O)[nH]c(N)nc32)C(OC(=O)C(C)C)C1OC(=O)C(C)C` (configuration not stated), the EC50 is > 200 µM and the IC50 was determined as 91.2 µM.
On to `O=C(NNc1cn[nH]c(=O)c1Cl)/C(=C/c1ccc2c(c1)OCO2)NC(=O)c1ccccc1`, for which the EC50 is > 200 µM and the IC50 stood at 162 µM.
Regarding `C(#CCN1CCCC1)CCCN1CCCC1`, the EC50 was > 200 µM and the IC50 was > 200 µM.
As to `CCOC(=O)/C(=C(\C)N)C1CC(=O)NC1=O` (configuration not stated), the EC50 was > 200 µM and the IC50 was determined as 107 µM.
As for `CC(C)OP(=O)(OC(C)C)C(N(C)C)P(=O)(OC(C)C)OC(C)C.[CH3][Sn]([CH3])([Cl])[Cl]`, the EC50 was > 302 µM and the IC50 turned out to be 17.4 µM.
Consider `CC12O[C@]3([C@H](C(=O)N4CCOC43C)[C@H]1Cl)[C@H]1O[C@H]12` (some centres not stated), for which the outcome was inactive.
Regarding `Cc1cccc(C)c1NC(=O)/C(Cc1nc2ccc([N+](=O)[O-])cc2[nH]c1=O)=N\NC(N)=O`, the EC50 was > 417 µM and the IC50 was found to be 126 µM.
For the molecule `C=C1CC(C)(COc2cc(=O)oc3ccccc23)OC1=O` (configuration not stated), the EC50 was > 200 µM and the IC50 came to 1.74 µM.
On to `O=C1/C(=C/c2cc(O)c(O)c(O)c2)Oc2cc(O)cc(OC3OC(CO)C(O)C(O)C3O)c21` (configuration not stated), for which the result was inactive.
For the molecule `CCOC(=O)/C(C1=NCCN1)=C(\O)c1ccccc1`, the EC50 was 468 µM and the IC50 amounted to 912 µM.
Consider `CN(C)/N=C(/CC(O)(C(F)(F)F)C(F)(F)F)c1ccc([N+](=O)[O-])cc1`, for which the EC50 was > 200 µM and the IC50 was determined as 31.6 µM.
As to `CN1CCN(C(=S)N(C)C(=O)c2ccco2)CC1`, the EC50 was > 933 µM and the IC50 was > 933 µM.
As for `O=C(/C=C(/SS/C(=C/C(=O)c1ccccc1)c1ccccc1)c1ccccc1)c1ccccc1`, the EC50 was > 200 µM and the IC50 came out at 2.51 µM.
Regarding `COc1ccc2c(c1)CCN=C2Cc1ccccc1CCCl`, the EC50 is > 200 µM and the IC50 was 26.3 µM.
With `CCOC(=O)/C(C(=S)Nc1ccccc1)=C(/N)N1CCCC1`, the EC50 was > 200 µM and the IC50 stood at 53.7 µM.
`COc1cc2c(cc1O)[C@@H]1Cc3c(cc(OC)c(OC)c3Oc3cc4c(cc3OC)CCN(C)[C@@H]4Cc3ccc(O)cc3)[C@H](C2)N1C`: the EC50 was > 200 µM and the IC50 was found to be 15.5 µM.

Values taken from PubChem BioAssay AID179 (DTP/NCI, 2004).
